# Measurements reported in article PMC11085442 (Molecules, 2024).
# How the values were obtained:
# [1] = system: LPS-stimulated RAW264.7 cell lines; experiment: LPS-induced NO production (Griess) in RAW264.7; format: cell-based, murine; details: for inhibitory activity against NO production compared with curcumin: 10 μM; for The production of NO: LPS-stimulated RAW264.7, LPS group 49.86 ± 0.62, control 1.20 ± 0.38
# Description: RAW 264.7 cells were plated in 96-well plates at a density of 1 × 10^4 cells/well and incubated overnight at 37 °C under 5% CO2. […] Dexamethasone (Solarbio, D8040, Beijing, China) was used as the positive control. Then, 24 h later, NO production was determined by measuring the nitrite content using Griess reagents. Fifty microliters of culture supernatants were transferred to 96-well plates and mixed with 50 μL Griess reagent A. After incubation at room temperature for 5 min, the samples were mixed with an equal volume Griess reagent B for another 5 min. The absorbance of each mixture at 540 nm was measured using a microplate reader.
# PC 12 cell line = experiment: Cytotoxicity assay (CCK-8) on PC 12; format: cell-based, rat; details: 20 μM
# Description: RAW264.7 cells were cultured in 96-well plates at a density of 3 × 10^4 cells/mL in Dulbecco’s modified Eagle’s medium (DMEM, Gibco, Baltimore, MD, USA) with 10% fetal calf serum (Gibco, Baltimore, MD, USA), 100 U/mL penicillin, and 100 μg/mL streptomycin. Plates were incubated in an atmosphere containing 5% CO2 at […]. PC 12 cells were cultured in 96-well plates at a density of 8000 cells/mL in Dulbecco’s modified Eagle’s medium (DMEM, Gibco, Baltimore, MD, USA) with 10% fetal calf serum (Gibco, Baltimore, MD, USA), 100 U/mL penicillin, and 100 μg/mL streptomycin. Plates were incubated in an atmosphere containing 5% CO2 at 37 °C. Cells were treated with different concentrations of test compounds for 48 h. Then, 10 μL CCK-8 solution were added to all the wells. After 4 h incubation, the absorbance at 450 nm of each well was measured in a multiscan photometer.
# PC 12 cell lines = experiment: Radiation protection in vitro (CCK-8); format: cell-based, rat; details: for radiation protection capacity: versus radiation group; for viability at 5 µM / viability at 10 µM / viability at 20 µM: Rattus norvegicus; for viability at 5 µM: PC-12, Dose 5 μM; for viability at 5 µM / viability at 10 µM / viability at 20 µM / Cell viability: radiation 8.0 Gy, PC 12, radiation group 50.22 ± 1.08; for viability at 10 µM: PC-12, Dose 10 μM; for viability at 20 µM: PC-12, Dose 20 μM; for Cell viability: in % (unit assumed)
# Description: The rat adrenal pheochromocytoma cells (PC 12) were used for in vitro studies. A Cell Counting Kit-8 (CCK-8, Applygen Technologies Co., Ltd., Beijing, China) assay was used to determine cell viability. […] Cells were irradiated with dose of 8.0 Gy at a dose rate of 0.8 Gy/min. Then, 10 μL CCK-8 solution was added to all the wells. After 4 h incubation, the absorbance at 450 nm of each well was measured in a multiscan photometer.
# [2] = Aqueous solubility determination by UV spectrophotometer; format: physicochemical; details: water, thermodynamic from solid, saturated solution concentration
# Description: A UV spectrophotometer was used to test the aqueous solubility of target compounds. Each compound to be tested was prepared into solutions with concentrations of 0.2 M, 0.1 M, 0.05 M, 0.025 M, 0.0125 M, 0.00625 M, and 0.003125 M. The optical density (OD) values of the prepared solutions were measured using an ultraviolet spectrophotometer, and concentration–OD-value standard curves were drawn for each compound to be tested. The saturated solutions of the target compounds were diluted by 5000 times and detected using an ultraviolet spectrophotometer to measure the OD values, respectively. The measured OD values were substituted into the corresponding concentration-OD value standard curve to calculate the diluted concentrations, which were multiplied by 5000 to obtain the saturated solution concentrations of the target compounds.
# [3] = system: H2O2-stimulated PC 12 cell lines; experiment: Protection against H2O2-induced oxidative damage (CCK-8); format: cell-based, rat; details: for Cell viability / viability at 5 µM / viability at 10 µM / viability at 20 µM: H2O2-induced oxidative damage, PC 12, H2O2 group 49.69 ± 1.37, control 100; for Cell viability: in % (unit assumed); for cell survival rate (anti-oxidant) / anti-oxidant capacity compared with curcumin: H2O2-stimulated PC 12; for viability at 5 µM / viability at 10 µM / viability at 20 µM: Rattus norvegicus; for viability at 5 µM: PC-12, Dose 5 μM; for viability at 10 µM: PC-12, Dose 10 μM; for viability at 20 µM: PC-12, Dose 20 μM; for anti-oxidant capacity compared with curcumin: 10 μM
# Description: PC 12 cells were seeded in 96-well plates at a density of 8000 cells/well and incubated overnight. […] After incubating under the same conditions for 24 h, 10 μL CCK-8 solution was added to each well. After 2 h incubation, the absorbance of each well was measured at 450 nm using a microplated reader (Multiskan MK-3, Thermo, Waltham, MA, USA).
Compound,inhibitory activity against NO production compared with curcumin [1],The production of NO ([1]; Dose 5 μM),The production of NO ([1]; Dose 10 μM),The production of NO ([1]; Dose 15 μM),effect on PC 12 cell proliferation (PC 12 cell line),radiation protection capacity (PC 12 cell lines; 10 μM),viability at 5 µM (PC 12 cell lines) [%],viability at 10 µM (PC 12 cell lines) [%],viability at 20 µM (PC 12 cell lines) [%],solubility [2] [mg/mL],Cell viability ([3]; Dose 5 μM),Cell viability ([3]; Dose 10 μM),Cell viability ([3]; Dose 20 μM),anti-oxidant capacity compared with curcumin [3],other results
COc1cc(/C=C/C(=O)CC(=O)/C=C/c2ccc(OC)c(OC)c2OC)cc(CN(C)C)c1O [Compound 6a],better inhibitory activity,27.02 ± 2.91,14.29 ± 1.71,5.23 ± 0.72,significant promoting effect,a certain degree of radiation protection capacity,65.6 ± 2.17,71.7 ± 2.56,84.9 ± 6.57,112,60.05 ± 5.39,76.41 ± 2.29,100.96 ± 1.07,–,"radiation protection capability compared with curcumin (PC 12 cell lines; 10 μM, irradiated PC 12): better radiation protection capability"
COc1ccc(/C=C/C(=O)CC(=O)/C=C/c2cc(CN(C)C)c(O)c(OC)c2)cc1O [Compound 11],–,35.85 ± 0.30,19.36 ± 1.66,7.59 ± 0.35,significant promoting effect,a certain degree of radiation protection capacity,65.09 ± 0.4,84.5 ± 3.4,94.2 ± 4.35,–,63.24 ± 1.07,72.52 ± 0.32,96.33 ± 1.04,–,"cell survival rate (radiation protection) (PC 12 cell lines; at 20 μM, irradiated PC 12): 94%; cell survival rate (anti-oxidant) ([3]; at 20 μM): 96%"
CCOc1cc(/C=C/C(=O)CC(=O)/C=C/c2cc(CN(C)C)c(O)c(OC)c2)ccc1O [Compound 1],–,44.55 ± 0.55,34.25 ± 0.96,12.30 ± 0.90,significant promoting effect,a certain degree of radiation protection capacity,–,–,89.7 ± 8.17,–,–,–,–,–,Cell viability (PC 12 cell lines; Dose 5 μM): 47.61 ± 1.20; Cell viability (PC 12 cell lines; Dose 10 μM): 57.30 ± 1.29; viability at 5 µM [3]: 63.9 ± 2.86%; viability at 10 µM [3]: 74.7 ± 4.82%; viability at 20 µM [3]: 86.4 ± 3.89%
COc1cc(/C=C/C(=O)CC(=O)/C=C/c2cc(OC)c(O)c(OC)c2)cc(CN(C)C)c1O [Compound 2a],–,41.89 ± 1.95,38.68 ± 0.96,36.24 ± 0.50,–,–,57.7 ± 4.12,61.6 ± 4.11,–,148,56.60 ± 0.54,61.51 ± 1.77,65.65 ± 1.31,–,Cell viability (PC 12 cell lines; Dose 20 μM): 92.24 ± 6.04; cell survival rate (anti-oxidant) ([3]; at 10 μM): 61%
COc1cc(/C=C/C(=O)CC(=O)/C=C/c2cc(C)c(O)c(C)c2)cc(CN(C)C)c1O [Compound 8a],better inhibitory activity,35.08 ± 2.53,16.57 ± 1.70,4.61 ± 0.29,–,a certain degree of radiation protection capacity,60.3 ± 1.38,62.2 ± 0.75,81.9 ± 2.94,118,74.54 ± 1.42,81.49 ± 3.47,87.62 ± 2.98,better anti-oxidant capacity,–
COc1cc(/C=C/C(=O)CC(=O)/C=C/c2ccc(O)c(Cl)c2)cc(CN(C)C)c1O [Compound 7a],better inhibitory activity,35.35 ± 1.59,16.83 ± 0.42,9.77 ± 0.63,–,–,62.1 ± 1.39,65.5 ± 2.03,75.7 ± 2.05,258,54.89 ± 1.04,62.07 ± 4.16,79.65 ± 3.04,–,cell survival rate (anti-oxidant) ([3]; at 10 μM): 62%
CCOc1cc(/C=C/C(=O)CC(=O)/C=C/c2cc(CN(C)C)c(O)c(OC)c2)ccc1O [Compound 1a],–,44.93 ± 0.35,32.32 ± 1.94,5.77 ± 0.09,–,a certain degree of radiation protection capacity,60 ± 5.39,62.9 ± 6.12,–,201,66.25 ± 1.36,80.18 ± 1.38,89.36 ± 1.63,better anti-oxidant capacity,–
COc1ccc(/C=C/C(=O)CC(=O)/C=C/c2cc(CN(C)C)c(O)c(OC)c2)cc1OC [Compound 5],–,34.62 ± 0.76,16.89 ± 1.33,9.97 ± 1.11,significant promoting effect,a certain degree of radiation protection capacity,–,–,–,–,–,–,–,better anti-oxidant capacity,Cell viability (PC 12 cell lines; Dose 5 μM): 58.70 ± 4.93; Cell viability (PC 12 cell lines; Dose 10 μM): 64.93 ± 4.67; Cell viability (PC 12 cell lines; Dose 20 μM): 104.23 ± 2.86; viability at 5 µM [3]: 71.02 ± 0.56%; viability at 10 µM [3]: 84.4 ± 1.86%; viability at 20 µM [3]: 103 ± 3.36%
